The numbers were not newly measured in patent US10752566B2, “Solvent compositions for use as replacements for slow evaporating solvents” (TBF ENVIRONMENTAL TECHNOLOGY INC., priority 2015, dated 2020), which cites them from elsewhere.

For this series the following is noted: PCBTF.

In the case of `FC(F)(F)c1ccc(Cl)cc1` [PCBTF, para-Chlorobenzotrifluoride], the specific gravity was 1.34.
